Measurements as given in patent US9670208B2, “Serine/threonine kinase inhibitors” (Array BioPharma Inc., priority 2013, dated 2017).
pIC50: −log10 of the molar value.

Tests used:
[1] = target: human ERK-2 (Mitogen Activated Kinase 1) (Homo sapiens (Human), UniProt P28482); assay: ERK-2 Enzymatic Assay; type: biochemical; conditions: ERK-2 enzyme, 25 μM ATP; single assay or mean of multiple assays; read-out: Biological Example 1 IC50
[2] = system: PMA-stimulated P90RSK(Ser380) phosphorylation in HepG2 cells; assay: Cellular P90RSK(Ser380) Phosphorylation Assay; type: cell-based; conditions: Homo sapiens, 1.5 hours compound incubation, PMA 100 ng/mL, normalized to GAPDH, single assay or mean of multiple assays, read-out: Biological Example 2 IC50
Protocol: Inhibition of PMA-stimulated P90RSK(Ser380) phosphorylation was determined by the following in vitro cellular mechanistic assay, which comprises incubating cells with a compound for 1.5 hours and quantifying fluorescent pP90RSK(Ser380) signal on fixed cells and normalizing to GAPDH signal.
HepG2 cells were obtained from ATCC (Manassas, Va.) and grown in DMEM supplemented with 10% fetal bovine serum. Cells were plated in 96-well plates at 35,000 cells/well and allowed to attach overnight at 37° C./5% CO2. Diluted compounds were then added at a final concentration of 0.5% DMSO. After 1.5 hours compound incubation, cells were stimulated with the addition of phorbol 12-myristate 13-acetate (“PMA”) at a final concentration of 100 ng/mL; the PMA stimulation was a 30-minute incubation at 37° C./5% CO2. After the 30-minute PMA stimulation, cells were washed with phosphate buffered saline (“PBS”) and fixed in 3.7% formaldehyde in PBS at room temperature for 15-20 minutes. This was followed by another wash in PBS and then permeabilization in 100% MeOH at room temperature for 10-15 minutes. Following the permeabilization incubation, cells were washed in PBS/0.05% Tween-20, followed by a block in Odyssey blocking buffer (LI-COR Biosciences) for at least 1 hour. Antibodies to phosphorylated P90RSK(Ser380) (Cell Signaling #9335, rabbit monoclonal) and GAPDH (Fitzgerald 10R-G109a, mouse monoclonal) were added to the cells and incubated overnight at 4° C. pP90RSK(Ser380) antibody was used at a 1:250 dilution; GAPDH was used at a 1:10,000 dilution. After washing with PBS/0.05% Tween-20, the cells were incubated with fluorescently-labeled secondary antibodies (Anti-rabbit-Alexa Flour680, Invitrogen Cat#A21109; Anti-mouse-IRDye800CW, Rockland Inc. Cat#610-131-121) for 1 hour. Both secondary antibodies were used at a 1:1000 dilution. Cells were then washed and analyzed for fluorescence at both wavelengths using the Odyssey Infrared Imaging System (LI-COR Biosciences). Phosphorylated P90RSK(Ser380) signal was normalized to GAPDH signal.

Chain of human ERK-2 (Mitogen Activated Kinase 1) (P28482 8-360): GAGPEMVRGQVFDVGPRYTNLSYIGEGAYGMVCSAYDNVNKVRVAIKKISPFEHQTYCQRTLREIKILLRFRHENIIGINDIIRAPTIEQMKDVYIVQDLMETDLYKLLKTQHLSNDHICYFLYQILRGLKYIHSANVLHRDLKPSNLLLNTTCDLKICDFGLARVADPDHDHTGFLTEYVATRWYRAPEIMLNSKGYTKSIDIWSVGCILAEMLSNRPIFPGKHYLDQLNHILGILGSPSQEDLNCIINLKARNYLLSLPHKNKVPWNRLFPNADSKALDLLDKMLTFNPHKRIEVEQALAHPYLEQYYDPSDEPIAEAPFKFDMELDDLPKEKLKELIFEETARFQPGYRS

SMILES	pIC50 [1]	pIC50 [2]
CCC=Cc1nnc2cc(-c3ccnc(Nc4ccnn4C)n3)ccn12 (stereo in doubt) [Example 258, (E)-4-(3-(but-1-en-1-yl)-[1,2,4]triazolo[4,3-a]pyridin-7-yl)-N-(1-methyl-1H-pyrazol-5-yl)pyrimidin-2-amine]	8.24	6.75
COc1ccc(Cc2nnc3cc(-c4ccnc(Nc5ccnn5C)n4)ccn23)cc1F [Example 40, 4-(3-(3-fluoro-4-methoxybenzyl)-[1,2,4]triazolo[4,3-a]pyridin-7-yl)-N-(1-methyl-1H-pyrazol-5-yl)pyrimidin-2-amine]	8.48	8.19
Cn1nccc1Nc1cc(-c2ccn3c(Cc4ccc(F)cc4F)nnc3c2)ccn1 [Example 84, 4-(3-(2,4-difluorobenzyl)-[1,2,4]triazolo[4,3-a]pyridin-7-yl)-N-(1-methyl-1H-pyrazol-5-yl)pyridin-2-amine]	8.49	7.80
COC(Cc1nnc2cc(-c3ccnc(Nc4ccnn4C)n3)ccn12)C(F)(F)F (stereo not drawn) [Example 108, N-(1-methyl-1H-pyrazol-5-yl)-4-(3-(3,3,3-trifluoro-2-methoxypropyl)-[1,2,4]triazolo[4,3-a]pyridin-7-yl)pyrimidin-2-amine]	8.47	7.42
CCOCCc1nnc2cc(-c3ccnc(Nc4ccnn4C)n3)ccn12 [Example 111, 4-(3-(2-ethoxyethyl)-[1,2,4]triazolo[4,3-a]pyridin-7-yl)-N-(1-methyl-1H-pyrazol-5-yl)pyrimidin-2-amine]	8.54	7.55
Fc1c(-c2ccnc(NC3CCOCC3)c2)ccn2c(Cc3ccc(Cl)cc3)nnc12 [Example 112, 4-(3-(4-chlorobenzyl)-8-fluoro-[1,2,4]triazolo[4,3-a]pyridin-7-yl)-N-(tetrahydro-2H-pyran-4-yl)pyridin-2-amine]	7.77	6.06
CN1CC(Oc2c(F)cccc2F)CC(c2nnc3cc(-c4ccnc(Nc5ccnn5C)n4)ccn23)C1 (stereo not drawn) [Example 113, 4-(3-(5-(2,6-difluorophenoxy)-1-methylpiperidin-3-yl)-[1,2,4]triazolo[4,3-a]pyridin-7-yl)-N-(1-methyl-1H-pyrazol-5-yl)pyrimidin-2-amine]	8.47	7.42
Cn1nccc1Nc1nccc(-c2ccn3c([C@H](O)c4cccc(Cl)c4)nnc3c2)n1 [Example 116, (R)-(3-chlorophenyl)(7-(2-((1-methyl-1H-pyrazol-5-yl)amino)pyrimidin-4-yl)-[1,2,4]triazolo[4,3-a]pyridin-3-yl)methanol]	8.48	7.71
COc1ccc(Cc2nnc3cc(-c4nc(NC5CCOCC5)ncc4F)ccn23)cc1 [Example 123, 5-fluoro-4-(3-(4-methoxybenzyl)-[1,2,4]triazolo[4,3-a]pyridin-7-yl)-N-(tetrahydro-2H-pyran-4-yl)pyrimidin-2-amine]	8.55	7.59
c1cc(-c2ccn3c(C4CCCNC4)nnc3c2)nc(NC2CCOCC2)n1 (stereo not drawn) [Example 131, 4-(3-(piperidin-3-yl)-[1,2,4]triazolo[4,3-a]pyridin-7-yl)-N-(tetrahydro-2H-pyran-4-yl)pyrimidin-2-amine]	6.65	5.62
COc1ncc(F)cc1CN1CCCC(c2nnc3cc(-c4ccnc(NC5CCOCC5)n4)ccn23)C1 (stereo not drawn) [Example 132, 4-(3-(1-((5-fluoro-2-methoxypyridin-3-yl)methyl)piperidin-3-yl)-[1,2,4]triazolo[4,3-a]pyridin-7-yl)-N-(tetrahydro-2H-pyran-4-yl)pyrimidin-2-amine]	6.70	< 5.30
CN1C(=O)CC(c2ccccc2)C1c1nnc2cc(-c3ccnc(NC4CCOCC4)n3)ccn12 (stereo not drawn) [Example 136, 1-methyl-4-phenyl-5-(7-(2-((tetrahydro-2H-pyran-4-yl)amino)pyrimidin-4-yl)-[1,2,4]triazolo[4,3-a]pyridin-3-yl)pyrrolidin-2-one]	6.77	–
O=C(c1c(F)cccc1F)N1CCOC(c2nnc3cc(-c4ccnc(NC5CCOCC5)n4)ccn23)C1 (stereo not drawn) [Example 140, (2,6-difluorophenyl)(2-(7-(2-((tetrahydro-2H-pyran-4-yl)amino)pyrimidin-4-yl)-[1,2,4]triazolo[4,3-a]pyridin-3-yl)morpholino)methanone]	8.12	6.31
Cn1nccc1Nc1nccc(-c2ccn3c(CC(C)(C)C)nnc3c2)n1 [Example 150, N-(1-methyl-1H-pyrazol-5-yl)-4-(3-neopentyl-[1,2,4]triazolo[4,3-a]pyridin-7-yl)pyrimidin-2-amine]	8.55	7.41
Cn1nccc1Nc1nccc(-c2ccn3c(C4OCCc5ccccc54)nnc3c2)n1 (stereo not drawn) [Example 192, 4-(3-(isochroman-1-yl)-[1,2,4]triazolo[4,3-a]pyridin-7-yl)-N-(1-methyl-1H-pyrazol-5-yl)pyrimidin-2-amine]	8.22	7.43
CO[C@@H](c1ccccc1)c1nnc2cc(-c3ccnc(NC4CCOCC4)n3)ccn12 [Example 195, (S)-4-(3-(methoxy(phenyl)methyl)-[1,2,4]triazolo[4,3-a]pyridin-7-yl)-N-(tetrahydro-2H-pyran-4-yl)pyrimidin-2-amine]	7.60	7.40
c1cc(-c2ccn3c(C4CNCCO4)nnc3c2)nc(NC2CCOCC2)n1 (stereo not drawn) [Example 387, 4-(3-(morpholin-2-yl)-[1,2,4]triazolo[4,3-a]pyridin-7-yl)-N-(tetrahydro-2H-pyran-4-yl)pyrimidin-2-amine]	6.93	–
Cc1cc(-c2nnc3cc(-c4ccnc(Nc5cnn(C)c5)n4)ccn23)nn1-c1ccc(F)cc1 [Example 419, 4-(3-(1-(4-fluorophenyl)-5-methyl-1H-pyrazol-3-yl)-[1,2,4]triazolo[4,3-a]pyridin-7-yl)-N-(1-methyl-1H-pyrazol-4-yl)pyrimidin-2-amine]	6.87	–

Now from value to compound, other results behind:

pIC50 [1]	SMILES	pIC50 [2]
9.10	Cn1nccc1Nc1nccc(-c2ccn3c(Cc4cc(C5CC5)ccn4)nnc3c2)n1 [Example 35, 4-(3-((4-cyclopropylpyridin-2-yl)methyl)-[1,2,4]triazolo[4,3-a]pyridin-7-yl)-N-(1-methyl-1H-pyrazol-5-yl)pyrimidin-2-amine]	7.77
9.10	COc1ccc(Cc2nnc3cc(-c4ccnc(Nc5ccnn5C)n4)ccn23)cc1 [Example 49, 4-(3-(4-methoxybenzyl)-[1,2,4]triazolo[4,3-a]pyridin-7-yl)-N-(1-methyl-1H-pyrazol-5-yl)pyrimidin-2-amine]	8.18
8.59	Cn1nccc1Nc1nccc(-c2ccn3c(Cc4cccc(F)c4F)nnc3c2)n1 [Example 51, 4-(3-(2,3-difluorobenzyl)-[1,2,4]triazolo[4,3-a]pyridin-7-yl)-N-(1-methyl-1H-pyrazol-5-yl)pyrimidin-2-amine]	8.05
9.30	Cn1nccc1Nc1nccc(-c2ccn3c(Cc4cccc(Cl)c4Cl)nnc3c2)n1 [Example 57, 4-(3-(2,3-dichlorobenzyl)-[1,2,4]triazolo[4,3-a]pyridin-7-yl)-N-(1-methyl-1H-pyrazol-5-yl)pyrimidin-2-amine]	8.34
8.55	Cn1nccc1Nc1nccc(-c2ccn3c(Cc4ccc(F)cc4F)nnc3c2)n1 [Example 67, 4-(3-(2,4-difluorobenzyl)-[1,2,4]triazolo[4,3-a]pyridin-7-yl)-N-(1-methyl-1H-pyrazol-5-yl)pyrimidin-2-amine]	8.12
8.55	CC[C@H](C)Cc1nnc2cc(-c3ccnc(Nc4ccnn4C)n3)ccn12 [Example 115, (S)—N-(1-methyl-1H-pyrazol-5-yl)-4-(3-(2-methylbutyl)-[1,2,4]triazolo[4,3-a]pyridin-7-yl)pyrimidin-2-amine]	8.08
9.05	Cn1nccc1Nc1cc(-c2ccn3c([C@H](O)Cc4ccccc4)nnc3c2)ccn1 [Example 121, (R)-1-(7-(2-((1-methyl-1H-pyrazol-5-yl)amino)pyridin-4-yl)-[1,2,4]triazolo[4,3-a]pyridin-3-yl)-2-phenylethanol]	7.46
8.62	Cn1nccc1Nc1nccc(-c2ccn3c(CC4CC5CCC4C5)nnc3c2)n1 (stereo not drawn) [Example 163, 4-(3-(bicyclo[2.2.1]heptan-2-ylmethyl)-[1,2,4]triazolo[4,3-a]pyridin-7-yl)-N-(1-methyl-1H-pyrazol-5-yl)pyrimidin-2-amine]	7.68
8.57	CC(C)Cc1nnc2cc(-c3ccnc(Nc4ccnn4C)n3)ccn12 [Example 169, 4-(3-isobutyl-[1,2,4]triazolo[4,3-a]pyridin-7-yl)-N-(1-methyl-1H-pyrazol-5-yl)pyrimidin-2-amine]	7.52
